This is an account of results in PubChem BioAssay AID1996.

By solubility (kinetic) is commonly meant the concentration staying in solution when a stock, usually in DMSO, is diluted into the medium.

In brackets after ≈: the same amount, converted by molar mass.

The conditions of this series: buffer; pH 7.4; 200.0 µM.
With `Cc1ccc(S(=O)(=O)N2CCCCC2)cc1NC(=O)C1CC1`, the kinetic solubility is > 48.4 µg/mL.
`CC(C)(C)C(=O)OCc1nc(-c2ccc(C(F)(F)F)cc2)cs1`: the kinetic solubility is < 0.7 µg/mL.
The value for `CCc1ccc(S(=O)(=O)NCc2csc(C)n2)cc1` was > 44.5 µg/mL.
As to `CC1CC(C)CN(c2ccc(NS(=O)(=O)c3ccccc3)cc2C(=O)O)C1` (stereo unspecified), the solubility (kinetic) amounted to 57.2 µg/mL (≈ 147 µM).
`c1ccc(CCN2CCC3(CC2)OCCO3)cc1` returned a solubility (kinetic) of 29.2 µg/mL (≈ 118 µM).
In the case of `CN(C)S(=O)(=O)c1ccc(C(=O)OC2CCOC2=O)cc1` (stereo unspecified), the kinetic solubility is > 47 µg/mL.
With `O=C(C1CCCCCC1)N1CC[C@@H](N2CCC(O)CC2)[C@H](O)C1` the figure was > 48.7 µg/mL.
Consider `Cc1ccc(-c2csc(NC(=O)c3ccco3)n2)cc1C`, for which the kinetic solubility was 0.7 µg/mL (≈ 2.35 µM).
The value for `O=C(O)c1ccccc1-c1ccccc1C(=O)Nc1nc2ccccc2s1` was > 56.2 µg/mL; that for `O=C(COC(=O)CCN1C(=O)C2CC=CCC2C1=O)Nc1ccc([N+](=O)[O-])cc1` (stereo unspecified) was > 60.2 µg/mL; that for `Cc1ccnc(NCc2ccc(Cl)cc2)c1` was 3.7 µg/mL (≈ 15.9 µM).
`CC(CNC(=O)c1ccccc1[N+](=O)[O-])NC(=O)c1ccccc1[N+](=O)[O-]` (stereo unspecified): the kinetic solubility is > 55.9 µg/mL.
Regarding `O=C(Nc1ccccc1C(=O)Nc1ccccn1)c1ccccc1F`, the solubility (kinetic) was 2 µg/mL (≈ 5.96 µM).
With `CC(C)CC(=O)N1CCN(Cc2ccc(Br)cc2)CC1`, the solubility (kinetic) was 28.1 µg/mL (≈ 82.8 µM).
The value for `COc1ccccc1NC(=O)c1ccc2c(=O)n3c(nc2c1)CCC3` was 13.2 µg/mL (≈ 39.4 µM).
As to `O=C(Nc1ccccc1)/C(=C\c1ccc(F)cc1)NC(=O)c1ccco1`, the kinetic solubility was determined as 2 µg/mL (≈ 5.71 µM).
The value for `O=C(CSc1nnc2ccccn12)NC(=O)c1cccc([N+](=O)[O-])c1` was > 53.6 µg/mL.
Consider `O=C(CN1C(=O)c2ccccc2C1=O)OCC(=O)N1CCCCC1`, for which the solubility (kinetic) was > 49.6 µg/mL.
`Cc1c(C)c(C)c(S(=O)(=O)NCCc2ccccn2)c(C)c1C` came in with a kinetic solubility of 40.3 µg/mL (≈ 121 µM).
With `Cc1c(Cl)cccc1NC(=S)Nc1ccc(S(=O)(=O)Nc2ncccn2)cc1` the figure was 64.9 µg/mL (≈ 150 µM); with `COc1cc(/C=C/c2nc3ccccc3c(=O)[nH]2)ccc1OC(F)F`, 1.9 µg/mL (≈ 5.52 µM).
In turn, `CCNC(=O)c1c(O)c2c([nH]c1=O)CCCC2` came in with a kinetic solubility of 3 µg/mL (≈ 12.7 µM).
With `Cc1noc(C)c1COc1cccc(C(=O)OC(C)C#N)c1` (stereo unspecified) the figure was 43.2 µg/mL (≈ 144 µM); with `Cc1ccc(CNc2nc3ccccc3n2C)o1`, > 36.2 µg/mL; with `Cc1ccc(C(=O)C[n+]2ccccc2)cc1.[I-]`, > 50.9 µg/mL.
In the case of `COC(=O)c1cccc(NC(=O)c2ccc[n+]([O-])c2)c1`, the kinetic solubility was > 40.8 µg/mL.
Take `O=C(O)C(=O)O.Oc1ccccc1CNCCCN1CCOCC1`: the solubility (kinetic) was 41.5 µg/mL.
As for `CSc1ccc(CN2CCN(CC=C(C)C)C(CCO)C2)cc1` (stereo unspecified), the solubility (kinetic) is > 50.2 µg/mL.
Turning to `COc1cc(C)c(S(=O)(=O)NCCCn2ccnc2)cc1C`, the kinetic solubility was 39.6 µg/mL (≈ 122 µM).
With `O=C(Nc1cccc(Cl)c1)c1ccc2c(c1)OCCO2` the figure was 6.3 µg/mL (≈ 21.7 µM); with `Cn1c(=O)n(C)c2cc(NC(=O)c3ccc(F)cc3)ccc21`, 15.5 µg/mL (≈ 51.8 µM).
For the compound `CCSc1ccc(/C(N)=N/OC(=O)c2cccs2)cn1`, the solubility (kinetic) came to 0.3 µg/mL (≈ 0.976 µM).
The value for `Cn1c(COc2ccc(C(=O)O)cc2)nc2ccccc21` was > 42.3 µg/mL; that for `CCC(OC(=O)c1ccco1)C(=O)NCc1ccc2c(c1)OCO2` (stereo unspecified) was 46.5 µg/mL (≈ 140 µM).
Compound `Cc1cc(/C=C(\C#N)C(=O)NCc2ccco2)c(C)n1-c1cccnc1` gave a kinetic solubility of 10.7 µg/mL (≈ 30.9 µM).
With `O=C(O)CN1C(=O)S/C(=C\c2ccc3c(c2)OCO3)C1=O` the figure was 41 µg/mL (≈ 133 µM).
The value for `CCOc1cc(N2CCOCC2)c(OCC)cc1NC(=O)c1cnccn1` was 11.9 µg/mL (≈ 32 µM); that for `O=C(NCc1ccc(Cl)cc1)Nc1ccc(F)cc1` was 1.3 µg/mL (≈ 4.66 µM); that for `CCc1c(C(=O)NCCc2cccc(C)c2)[nH]c(C)c1C(C)=O` was 5 µg/mL (≈ 16 µM).
For the compound `O=C(CN1C(=O)CNC1=O)Nc1ccc(Cl)cc1`, the kinetic solubility was > 40.2 µg/mL.
The value for `COc1ccc(Nc2nccc(-c3ccc([N+](=O)[O-])cc3)n2)cc1` was 0.4 µg/mL (≈ 1.24 µM); that for `O=C(Cc1ccccc1)Nc1cc2c(cc1Cl)OCCCO2` was 5.5 µg/mL (≈ 17.3 µM).
Turning to `CCOc1ccccc1N1CC(C(=O)NC2CCCCCC2)CC1=O` (stereo unspecified), the kinetic solubility stood at 45.7 µg/mL (≈ 133 µM).
With `O=C(NCCCNC(=O)c1ccc(Cl)cc1Cl)c1ccco1` the figure was 50.1 µg/mL (≈ 147 µM).
With `COc1ccccc1NS(=O)(=O)c1ccc(N2CCOCC2)c(N)c1` the figure was 5.1 µg/mL (≈ 14 µM); with `c1ccc2[nH]c(-c3cscn3)nc2c1`, > 30.2 µg/mL.
In the case of `CC(O)c1nc2ccccc2n1C(C)c1ccccc1` (stereo unspecified), the solubility (kinetic) is > 40 µg/mL.
With `Cc1ccsc1CN1CC(=O)N(c2c(C)cccc2C)C1=S` the figure was 12.2 µg/mL (≈ 36.9 µM).
With `NS(=O)(=O)c1ccc(NC(=O)C2C3C=CC(C3)C2C(=O)O)cc1` (stereo unspecified) the figure was > 50.5 µg/mL.
The value for `CN1C(=O)c2ccccc2C(C(=O)O)C1c1cccc([N+](=O)[O-])c1` (stereo unspecified) was > 48.9 µg/mL.
Turning to `Cc1nc(NC(=O)COC(=O)CNC(=O)c2ccco2)c(Cl)cc1Cl`, the kinetic solubility is > 57.9 µg/mL.
